Source: patent US9011853B2, “B7-H4 fusion proteins and methods of use thereof” (Amplimmune, Inc., priority 2009, dated 2015)

Columns and labels:
DBA/1J mice = experiment: Collagen-induced arthritis (CIA) prophylactic model, arthritis score; type: in vivo, mouse; conditions: 0.5 mg (20 mg/kg) IP from day of CII immunization, 2 times each week up to 6 weeks; days 33 and beyond; vs vehicle (FIG. 3)
From the text: CIA is a well-characterized mouse model for human RA, in which injection of collagen II (CII) into DBA/1J mice induces swelling and progressive inflammation in joints resulting in arthritis. […] B7-H4-Ig treatment continued 2 times each week, up to 6 weeks. On day 21, mice were rechallenged with CII emulsified in IFA. FIG. 2 outlines a brief experimental design. Day 40 was the last B7-H4-Ig treatment.

CD4^+CD25^− T cells = experiment: Enteroantigen specific CD4+CD25- proliferation assay with cells from treated mice; type: in vivo, mouse; conditions: Balb/c mice
Experimental: Extracts were prepared by removing the colon and cecum from mice and placing the content in PBS. This was sonicated 3 times for 30 seconds on ice, followed by centrifugation at 10,000 g for 10 min to remove insoluble material. The supernatant was collected, sterile filtered, and stored at −60° C. The protein concentration in the supernatants was typically 1 to 1.5 mg/mL as determined by the bicinchoninic acid (BCA) method.
Female wild-type Balb/c, 7 to 9 weeks of age, were injected with either 60 μg or 300 μg of B7-H4-Ig, intraperitoneally (IP), 3 times a week for 2 weeks. There were 5 mice in each group. B7-H4-Ig treated mice and also naïve control mice were euthanized for T cell isolation after 2 week treatment.
The CD4^+CD25^− T cells were obtained as follows: CD4^+ T cells were positively selected from spleen single-cell suspensions using a mouse anti-CD4 monoclonal antibody-coated DYNABEAD® and the DETACHABEAD® system (Dynal AS, Oslo, Norway) according to the manufacturer's instructions. Then the CD4^+ T cells ([…] assessed by flow cytometry) were separated into CD25^+ and CD25^− T cell populations by Miltenyi's magnetic bead technology (MACS®, Miltenyi Biotech, Belgisch Gladbach, Germany) using PE-labeled anti-CD25 monoclonal antibody, followed by the addition of anti-PE microbeads and depletion according to the manufacturer's instructions. […]

[1] = system: CD4^+CD62L^+ naïve T cells; experiment: In vitro Th17 polarization: proliferation and cytokine production; type: cell-based, mouse; conditions: 0, 0.1, 1 or 10 μg/mL in solution
Experimental: Mouse splenocytes were first removed isolated from DO11.10 mice, which express an MHC class II restricted T cell receptor specific for OVA323-339. Mouse CD4^+ T cells were purified using a Miltenyi CD4^+ T cell negative isolation kit (Cat#130-090-860). Naïve CD4^+ T cells were further purified using the Miltenyi anti-CD62L positive selection magnetic beads (cat#130-049-701).
CD4^+ CD62L^+ naïve T cells with or without CD25^+ T cells were cultured in serum free HL-1 media in the presence of rTGF-β (10 ng/mL), IL-6 (50 ng/mL), IL-23 (4 ng/mL), anti-IL-4 (1 μg/mL), anti-IFN-γ (1 μg/mL) and anti-IL-2 (1 μg/mL). To provide murine B7-H4-Ig in an immobilized format, 96-well flat bottom plates were first coated with murine B7-H4-Ig, 100 μl per well at 1 μg/mL, and incubated at 37° C. for 2 hours. […] For non-specific antigen activation, Mouse CD3/CD28 T Cell Expander beads (Dynabeads®; Invitrogen, Cat#11452D) was added into each well, at a 1:1 cell to bead ratio. […]
[^3H]-Thymidine (1 μCi/well) was added into each well 24 hr post co-incubation. Proliferation was determined by uptake of [^3H]-thymidine detected at 48 hr post [^3H]-thymidine addition using a Topcount Microplate Scintillation Counter (Packard Instruments, Meridan, Conn.). Results are expressed as the mean of triplicate cultures±SEM. […]

Row | Substance | overall arthritis scores (DBA/1J mice) | enteroantigen specific CD4+CD25− T effector cell response (CD4^+CD25^− T cells; 60 μg or 300 μg IP 3 times a week for 2 weeks (FIG. 52)) | Tregs from treated mice: blocking of enteroantigen priming and T cell proliferation (CD4^+CD25^− T cells; 60 μg or 300 μg IP 3 times a week for 2 weeks, vs Tregs from control mice (FIG. 51)) | IL-17 production in Th17 cells ([1]; anti-CD3/CD28 beads (FIG. 28)) | murine Th17 proliferation ([1]; anti-CD3/CD28 beads, dose dependent (FIG. 26))
1 | B7-H4-Ig: B7-H4 extracellular domain fused to Ig Fc; bare label is the human protein in Example 3, murine protein in Examples 1, 2, 5, 7-11 | significantly lower than the scores for vehicle-injected CIA mice | barely affected | more potent in blocking enteroantigen priming and T cell proliferation | – | –
2 | Human B7-H4-Ig: human B7-H4 extracellular domain fused to hinge, CH2 and CH3 regions of human immunoglobulin Cγ1 chain; representative SEQ ID NOs:114-137 | – | – | – | reduced | blocked murine Th1/Th17 proliferation
